The numbers were not newly measured in US6943193B1, “Method for treating sexual dysfunction” (priority 2003, dated 2005), which cites them from elsewhere.

The subject of the data set is erectile dysfunction.

Structures are written as SMILES.

For `CCCc1nn(C)c2c(=O)[nH]c(-c3cc(S(=O)(=O)N4CCN(C)CC4)ccc3OCC)nc12` [sildenafil], the efficacy (clinical practice) was about 50%. Moreover, for the setting “initial reports”, the success rates is reported as at most 85%.
